Test systems include SK-MEL-28 melanoma; MALME-3M melanoma; HOP-62 NSCLC; EKVX NSCLC; HS 578T breast; OVCAR-5 ovarian; HOP-92 NSCLC; UACC-257 melanoma; UACC-62 melanoma; SN12C renal; KM12 colon; SF-539 CNS; COLO 205 colon; SK-OV-3 ovarian; HL-60(TB) leukemia; CCRF-CEM leukemia; NCI/ADR-RES ovarian.
What all share (assay): growth of human tumour cells (NCI), 48 h

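All cell lines were grown in 96-well plates and treated with compound for 48 hours. The concentration for full growth arrest is given as TGI.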

For the compound `COC(=O)c1ccc(CCc2cc(O)c(Br)cc2O)cc1`, the TGI in the assay on SK-MEL-28 melanoma is 34.4 µM; in the assay with MALME-3M melanoma it was 32.4 µM; with HOP-62 NSCLC, 32.2 µM; with EKVX NSCLC, 31.3 µM; in the assay on HS 578T breast it was above 100 µM; in the assay with OVCAR-5 ovarian it was 33.8 µM. The TGI is 28.2 µM with HOP-92 NSCLC; 30.9 µM with UACC-257 melanoma; 27.1 µM in the assay with UACC-62 melanoma; 28.3 µM in the assay on SN12C renal; above 55.3 µM in the assay on KM12 colon; 20.7 µM in the assay on SF-539 CNS. Also, the TGI is 27.3 µM with COLO 205 colon; above 62.5 µM with SK-OV-3 ovarian; 4.65 µM in the assay with HL-60(TB) leukemia; 5.78 µM in the assay on CCRF-CEM leukemia; 43.2 µM with NCI/ADR-RES ovarian.

In the case of `O=C(N/N=C\c1ccc([N+](=O)[O-])cc1)Nc1cccc2ccccc12`, the TGI is above 100 µM in the assay with SK-MEL-28 melanoma; above 82.5 µM in the assay with MALME-3M melanoma; 22.5 µM in the assay with HOP-62 NSCLC; above 100 µM in the assay with EKVX NSCLC; 32 µM with HS 578T breast; above 100 µM in the assay with OVCAR-5 ovarian. The TGI in the assay with HOP-92 NSCLC was 16.7 µM; in the assay on UACC-257 melanoma it was above 100 µM; in the assay on UACC-62 melanoma, above 49.8 µM; in the assay on SN12C renal, above 100 µM; with KM12 colon it was above 100 µM; in the assay on SF-539 CNS it was 33 µM. Moreover, the TGI is above 100 µM with COLO 205 colon; 39 µM in the assay on SK-OV-3 ovarian; above 31.6 µM in the assay on HL-60(TB) leukemia; above 100 µM in the assay with CCRF-CEM leukemia; above 100 µM in the assay on NCI/ADR-RES ovarian.

For the compound `CN[C@@H](C)[C@H](OP(=O)(O)OC1[C@@H](O)[C@H](O)C(O)[C@H](O)[C@@H]1O)c1ccccc1` (stereo partly specified), the TGI with SK-MEL-28 melanoma, in the assay with MALME-3M melanoma, with HOP-62 NSCLC, in the assay on EKVX NSCLC, with HS 578T breast and with OVCAR-5 ovarian was above 100 µM throughout. The TGI in the assay on HOP-92 NSCLC, in the assay with UACC-257 melanoma, with UACC-62 melanoma, in the assay with SN12C renal, in the assay on KM12 colon and in the assay on SF-539 CNS was above 100 µM in each case. The TGI in the assay on COLO 205 colon, in the assay with SK-OV-3 ovarian, in the assay on HL-60(TB) leukemia, in the assay with CCRF-CEM leukemia and with NCI/ADR-RES ovarian was above 100 µM throughout.

As for `CC1=C(C(=O)Nc2ccccc2)C(c2ccc(C)o2)C(C#N)=C(SCc2ccccc2)N1` (stereo unspecified), the TGI in the assay with SK-MEL-28 melanoma, in the assay on MALME-3M melanoma, in the assay on HOP-62 NSCLC, in the assay on EKVX NSCLC, in the assay on HS 578T breast and in the assay on OVCAR-5 ovarian was above 100 µM throughout. Besides, the TGI is above 66.4 µM with HOP-92 NSCLC; above 100 µM in the assay with UACC-257 melanoma; above 100 µM with UACC-62 melanoma; above 100 µM in the assay on SN12C renal; above 100 µM in the assay with KM12 colon; above 100 µM with SF-539 CNS. Also, the TGI with COLO 205 colon, in the assay on SK-OV-3 ovarian, in the assay on HL-60(TB) leukemia, in the assay with CCRF-CEM leukemia and in the assay with NCI/ADR-RES ovarian was above 100 µM throughout.

As for `N#C[C@@]12CCCC(=O)[C@@H]1[C@H]1CCC[C@H]12`, the TGI in the assay with SK-MEL-28 melanoma is 35.3 µM; in the assay on MALME-3M melanoma it was 32.3 µM; in the assay with HOP-62 NSCLC, 30.8 µM; with EKVX NSCLC, 28.6 µM; in the assay with HS 578T breast, above 100 µM; in the assay with OVCAR-5 ovarian it was 25.7 µM. Moreover, the TGI in the assay with HOP-92 NSCLC stood at 38 µM; with UACC-257 melanoma it was 36.2 µM; in the assay on UACC-62 melanoma, 58 µM; with SN12C renal it was 35.1 µM; in the assay on KM12 colon it was 27.4 µM; in the assay with SF-539 CNS, 59.9 µM. In addition, the TGI in the assay with COLO 205 colon came to 45.7 µM; in the assay on SK-OV-3 ovarian it was 32.8 µM; with HL-60(TB) leukemia it was 34.1 µM; in the assay with CCRF-CEM leukemia, 57.4 µM; with NCI/ADR-RES ovarian, 59.4 µM.

In the case of `COc1ccc(-n2c3c(c4c(CN(C)C)c(O)ccc42)C(=O)c2ccccc2C3=O)cc1`, the TGI with SK-MEL-28 melanoma was 14.7 µM; with MALME-3M melanoma it was 27.1 µM; in the assay on HOP-62 NSCLC it was 4.72 µM; in the assay with EKVX NSCLC, 25.4 µM; in the assay on HS 578T breast, above 100 µM; in the assay on OVCAR-5 ovarian, 17.1 µM. Moreover, the TGI with HOP-92 NSCLC was determined as 44.8 µM; in the assay on UACC-257 melanoma it was 41.2 µM; in the assay with UACC-62 melanoma, 15.7 µM; in the assay with SN12C renal, 7.15 µM; with KM12 colon, 10.7 µM; in the assay on SF-539 CNS it was 3.89 µM. Further, the TGI turned out to be 20.7 µM with COLO 205 colon; 8.01 µM in the assay with SK-OV-3 ovarian; 19.5 µM with HL-60(TB) leukemia; 8.35 µM with CCRF-CEM leukemia; 26.3 µM with NCI/ADR-RES ovarian.

On to `CC1(C)C(=O)C2(OS(=O)(=O)C(F)(F)F)CCC1C2` (stereo unspecified), for which the TGI in the assay with SK-MEL-28 melanoma, with MALME-3M melanoma, with HOP-62 NSCLC, in the assay on EKVX NSCLC, in the assay with HS 578T breast and with OVCAR-5 ovarian was above 100 µM throughout. Further, the TGI in the assay with HOP-92 NSCLC, with UACC-257 melanoma, in the assay on UACC-62 melanoma, with SN12C renal, with KM12 colon and with SF-539 CNS was above 100 µM each time. Further, the TGI in the assay on COLO 205 colon, with SK-OV-3 ovarian, with HL-60(TB) leukemia, with CCRF-CEM leukemia and in the assay with NCI/ADR-RES ovarian was above 100 µM in each case.

With `CN(C)CCNC1=CC(=O)c2c(O)ccc(O)c2C1=O`, the TGI in the assay on SK-MEL-28 melanoma amounted to 26.3 µM; with MALME-3M melanoma, 2.62 µM; in the assay with HOP-62 NSCLC, 30.3 µM; with EKVX NSCLC it was 25.6 µM; with HS 578T breast it was 53.6 µM; in the assay with OVCAR-5 ovarian, 27.5 µM. Moreover, the TGI worked out at 27.8 µM with HOP-92 NSCLC; 5.61 µM in the assay with UACC-257 melanoma; 5.63 µM in the assay with UACC-62 melanoma; 21.5 µM in the assay on SN12C renal; 21.2 µM in the assay on KM12 colon; 20.6 µM in the assay on SF-539 CNS. The TGI in the assay on COLO 205 colon amounted to 3.63 µM; in the assay on SK-OV-3 ovarian, 83.1 µM; with HL-60(TB) leukemia it was 6.53 µM; in the assay with CCRF-CEM leukemia, 11.3 µM; in the assay on NCI/ADR-RES ovarian, 7.78 µM.

The record behind these values is PubChem BioAssay (NCI).
